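Exposure lasted 48 hours, with cells grown in 96-well plates and compounds tested at five concentrations. GI50 = concentration required for 50% inhibition of growth.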 Activity calls are given as the source filed them. Cut-off read from the data, not from the text of the source: active = GI50 up to about 1.1 µM and inactive = higher.
Tests used:
Test in all cases: NCI tumour cell line growth inhibition, 48 h
COLO 205 = tested on: COLO 205
CAKI-1 = tested on: CAKI-1
SR = tested on: SR
HCT-116 = tested on: HCT-116
HOP-62 = tested on: HOP-62
NCI-H23 = tested on: NCI-H23
OVCAR-3 = tested on: OVCAR-3
U-251 = tested on: U-251
LOX IMVI = tested on: LOX IMVI
SNB-75 = tested on: SNB-75
CCRF-CEM = tested on: CCRF-CEM
RXF 393 = tested on: RXF 393
M14 = tested on: M14
A549 = tested on: A549
OVCAR-8 = tested on: OVCAR-8
HL-60 = tested on: HL-60
A498 = tested on: A498
NCI/ADR-RES = tested on: NCI/ADR-RES
MCF7 = tested on: MCF7
MDA-MB-435 = tested on: MDA-MB-435

| Structure (SMILES) | GI50 (COLO 205) | GI50 (CAKI-1) | GI50 (SR) | GI50 (HCT-116) | GI50 (HOP-62) | GI50 (NCI-H23) | GI50 (OVCAR-3) | GI50 (U-251) | GI50 (LOX IMVI) | GI50 (SNB-75) | GI50 (CCRF-CEM) | GI50 (RXF 393) | GI50 (M14) | GI50 (A549) | GI50 (OVCAR-8) | GI50 (HL-60) | GI50 (A498) | GI50 (NCI/ADR-RES) | GI50 (MCF7) | GI50 (MDA-MB-435) |
| --- | --- | --- | --- | --- | --- | --- | --- | --- | --- | --- | --- | --- | --- | --- | --- | --- | --- | --- | --- | --- |
| CCC1=CCN(c2cc(C)ccn2)OC1c1ccc(OC)cc1 (centres undefined) | 16.3 µM (inactive) | 34.4 µM (inactive) | 25.5 µM (inactive) | 21.2 µM (inactive) | 44.3 µM (inactive) | 34 µM (inactive) | 42.7 µM (inactive) | 21.5 µM (inactive) | 30.1 µM (inactive) | 33.7 µM (inactive) | 23.7 µM (inactive) | 22.3 µM (inactive) | 32.5 µM (inactive) | 35.2 µM (inactive) | 32.8 µM (inactive) | 22.5 µM (inactive) | – | – | – | – |
| COC1CCC(OS(C)(=O)=O)CO1 (centres undefined) | > 100 µM (inactive) | – | 24.7 µM (inactive) | > 100 µM (inactive) | > 100 µM (inactive) | > 100 µM (inactive) | > 100 µM (inactive) | > 100 µM (inactive) | – | 60.5 µM (inactive) | 22.5 µM (inactive) | > 100 µM (inactive) | > 100 µM (inactive) | – | – | 35 µM (inactive) | > 100 µM (inactive) | – | – | – |
| CCCc1c(C(=O)OCC)[nH]c(-c2ccc(-c3[nH]c(C(=O)OCC)c(CCC)c3C(=O)OCC)o2)c1C(=O)OCC | > 100 µM (inactive) | > 100 µM (inactive) | > 100 µM (inactive) | > 100 µM (inactive) | – | > 100 µM (inactive) | > 100 µM (inactive) | > 100 µM (inactive) | > 100 µM (inactive) | > 100 µM (inactive) | > 100 µM (inactive) | > 100 µM (inactive) | > 100 µM (inactive) | > 100 µM (inactive) | > 100 µM (inactive) | > 100 µM (inactive) | > 100 µM (inactive) | – | – | – |
| CC1(C)CC23C4COC(=O)C2CCC1C3CC4=O (centres undefined) | 15.6 µM (inactive) | 5.47 µM (inactive) | – | 6.71 µM (inactive) | 24.4 µM (inactive) | 3.27 µM (inactive) | 12.5 µM (inactive) | 20.7 µM (inactive) | 8.39 µM (inactive) | 19.8 µM (inactive) | 2.37 µM (inactive) | 1.71 µM (inactive) | – | 19.1 µM (inactive) | 10 µM (inactive) | 3.06 µM (inactive) | 5.92 µM (inactive) | 7.21 µM (inactive) | 19.5 µM (inactive) | – |
| Cc1ccccc1NC(=O)C(=O)C1CN(c2ccccc2)N=C1N (centres undefined) | – | > 100 µM (inactive) | > 100 µM (inactive) | > 100 µM (inactive) | > 100 µM (inactive) | > 100 µM (inactive) | > 100 µM (inactive) | > 100 µM (inactive) | – | 86.5 µM (inactive) | > 100 µM (inactive) | > 100 µM (inactive) | > 100 µM (inactive) | > 100 µM (inactive) | > 100 µM (inactive) | > 100 µM (inactive) | > 100 µM (inactive) | – | – | – |
| Cn1nc(C(=O)N2CC(CCl)c3c2cc(N)c2ccccc32)cc1NC(=O)Nc1cc(C(=O)N2CC(CCl)c3c2cc(N)c2ccccc32)nn1C (centres undefined) | 0.163 µM (active) | 0.254 µM (active) | < 0.01 µM (active) | 0.0818 µM (active) | 0.682 µM (active) | 0.0225 µM (active) | 0.201 µM (active) | 0.0212 µM (active) | < 0.01 µM (active) | 0.0185 µM (active) | < 0.01 µM (active) | 0.0447 µM (active) | 0.349 µM (active) | 0.499 µM (active) | 0.249 µM (active) | – | 8.69 µM (inactive) | > 100 µM (inactive) | – | 0.219 µM (active) |
| CC(C)(C)C1=NO[C@H]2[C@@H](NC(=O)c3ccccc3)CC[C@@H]12 | > 100 µM (inactive) | > 100 µM (inactive) | > 100 µM (inactive) | > 100 µM (inactive) | > 100 µM (inactive) | > 100 µM (inactive) | > 100 µM (inactive) | > 100 µM (inactive) | > 100 µM (inactive) | 38.3 µM (inactive) | > 100 µM (inactive) | > 100 µM (inactive) | > 100 µM (inactive) | > 100 µM (inactive) | > 100 µM (inactive) | > 100 µM (inactive) | – | – | – | – |
| CC(=O)OC(C)(C)C[N+](=O)[O-] | > 100 µM (inactive) | > 100 µM (inactive) | > 100 µM (inactive) | > 100 µM (inactive) | > 100 µM (inactive) | > 100 µM (inactive) | > 100 µM (inactive) | > 100 µM (inactive) | > 100 µM (inactive) | > 100 µM (inactive) | > 100 µM (inactive) | > 100 µM (inactive) | > 100 µM (inactive) | > 100 µM (inactive) | > 100 µM (inactive) | 26 µM (inactive) | – | – | – | – |
| [O-][n+]1ccccc1S [PYRITHIONE ZINC] | 0.625 µM (active) | 5.13 µM (inactive) | 0.168 µM (active) | 0.5 µM (active) | 4.34 µM (inactive) | 1.21 µM (inactive) | 0.304 µM (active) | 1.34 µM (inactive) | 1.4 µM (inactive) | 3.03 µM (inactive) | 0.0331 µM (active) | 0.135 µM (active) | 1.25 µM (inactive) | 1.55 µM (inactive) | 3.01 µM (inactive) | 0.232 µM (active) | 0.796 µM (active) | – | – | – |

Source: ChEMBL document CHEMBL1201862, “PubChem BioAssay data set” (2004)
